The source of these data is ChEMBL document CHEMBL2346568, “Discovery and structure-activity relationship of thienopyridine derivatives as bone anabolic agents” (Bioorg Med Chem, 2013).

Active and inactive are the calls of the source. The calls are words filed in the database; no cut-off is given here.

The nature of data set [1]: Induction of osteoblastic differentiation in mouse ST2 cells assessed as increase in alkaline phosphatase activity at 0.30 ug/ml after 4 days by lowry method. It is filed as functional.
Data set [2] can be described thus: Induction of osteoblastic differentiation in mouse ST2 cells assessed as increase in alkaline phosphatase activity after 4 days by lowry method. It is filed as functional.
Data set [3] is described as follows: in vitro. The conditions noted are these: rat, liver microsomes. (In general: Microsomes from liver hold many membrane-bound enzymes, among them those of drug oxidation.)
Data set [4] in a line: Oral bioavailability in F344 rat at 25 mg/kg. The format is ADME, organism-based. The settings on record: in vivo.
Data set [5] can be described thus: AUC in F344 rat at 2 mg/kg, iv. The settings on record: plasma. It is filed as ADME, organism-based. Also noted: dose 2 mg/kg, route intravenous.
Data set [6] deals with Rattus norvegicus. Put plainly: Bone anabolic effect in ovariectomized F344 rat postmenopausal osteoporosis model assessed as increase in areal bone mineral density of femoral diaphyses at 60 mg/kg, po bid for 6 weeks by dual energy X-ray absorptiometry. It is filed as functional, organism-based. The arrangement: dose 60 mg/kg.
Data set [7] is described as follows: Cmax in F344 rat at 25 mg/kg, po. It is filed as ADME, organism-based. The conditions noted are these: in vivo. The arrangement: dose 25 mg/kg, route oral.
In data set [8] the test system is Rattus norvegicus. Put plainly: Bone anabolic effect in ovariectomized F344 rat postmenopausal osteoporosis model assessed as increase in areal bone mineral density of proximal tibiae at 60 mg/kg, po bid for 6 weeks by dual energy X-ray absorptiometry. The arrangement: dose 60 mg/kg. It is filed as functional, organism-based.
A short description of data set [9]: Volume of distribution in F344 rat at 2 mg/kg, iv. The settings on record: in vivo. Also noted: dose 2 mg/kg, route intravenous. It is filed as ADME, organism-based.
The test system of data set [10] is Rattus norvegicus. Kind of data set: Bone anabolic effect in ovariectomized F344 rat postmenopausal osteoporosis model assessed as increase in areal bone mineral density of distal femur at 60 mg/kg, po bid for 6 weeks by dual energy X-ray absorptiometry. It is filed as functional, organism-based. The arrangement: dose 60 mg/kg.
Data set [11] can be described thus: AUC in F344 rat at 25 mg/kg, po. The format is ADME, organism-based. The arrangement: dose 25 mg/kg, route oral. The settings on record: plasma.
Data set [12] has as its system Rattus norvegicus. Kind of data set: Bone anabolic effect in ovariectomized F344 rat postmenopausal osteoporosis model assessed as increase in serum osteocalcin level at 60 mg/kg, po bid for 6 weeks by ELISA. It is filed as functional, organism-based. The arrangement: dose 60 mg/kg.
The subject of data set [13] is Rattus norvegicus. Put plainly: Volume of distribution in F344 rat at 25 mg/kg, po. The format is ADME, organism-based. The arrangement: dose 25 mg/kg, route oral. The settings on record: in vivo.
The test system of data set [14] is Rattus norvegicus. Put plainly: Bone anabolic effect in ovariectomized F344 rat postmenopausal osteoporosis model assessed as increase in serum osteocalcin level at 10 to 30 mg/kg, po qd for 6 weeks by ELISA. It is filed as functional, organism-based. (An ELISA detects its analyte on a solid surface through an enzyme-linked reagent.)
Data set [15] can be described thus: Half life in F344 rat at 2 mg/kg, iv. The conditions noted are these: in vivo.
The test system of data set [16] is Rattus norvegicus. Kind of data set: Bone anabolic effect in ovariectomized F344 rat postmenopausal osteoporosis model assessed as increase in areal bone mineral density of distal femur at 10 to 30 mg/kg, po qd for 6 weeks by dual energy X-ray absorptiometry. The format is functional, organism-based.
Data set [17] can be described thus: Half life in F344 rat at 25 mg/kg, po. The settings on record: in vivo.
Data set [18] deals with Rattus norvegicus. Kind of data set: Bone anabolic effect in ovariectomized F344 rat postmenopausal osteoporosis model assessed as increase in areal bone mineral density of femoral diaphyses at 10 to 30 mg/kg, po qd for 6 weeks by dual energy X-ray absorptiometry. It is filed as functional, organism-based.
Data set [19] in a line: Clearance in F344 rat at 2 mg/kg, iv. The settings on record: in vivo.
Data set [20] is described as follows: Clearance in F344 rat at 25 mg/kg, po. The settings on record: in vivo.
In data set [21] the test system is Rattus norvegicus. Put plainly: Bone anabolic effect in ovariectomized F344 rat postmenopausal osteoporosis model assessed as increase in areal bone mineral density of proximal tibiae at 10 to 30 mg/kg, po qd for 6 weeks by dual energy X-ray absorptiometry. It is filed as functional, organism-based.

With `CCCN(CCC)c1ccnc2sc(C(N)=O)c(N)c12`, in [1], the Activity is on record as 110%.

As for `NC(=O)c1sc2nccc(N3CCCC3)c2c1N`, the EC200 in data set [2] was determined as 0.29 µg/mL.

Take `NC(=O)c1sc2nccc(N3CCCN(c4ccc(C(=O)O)cc4)CC3)c2c1N`: the EC200 in [2] was over 1 µg/mL.

As to `CNC(=O)c1ccc(N2CCCN(c3ccnc4sc(C(N)=O)c(N)c34)CC2)cc1`, the EC200 in data set [2] worked out at 0.023 µg/mL.

As for `Cc1ccc(N2CCCN(c3ccnc4sc(C(N)=O)c(N)c34)CC2)cc1`, the EC200 in data set [2] stood at 0.044 µg/mL.

As to `NC(=O)c1sc2nccc(N3CCNCC3)c2c1N`, the Activity in [1] is on record as 105%.

For the molecule `CN(C)C(=O)c1ccc(N2CCCN(c3ccnc4sc(C(N)=O)c(N)c34)CC2)cc1`, the EC200 in [2] turned out to be 0.014 µg/mL.

Regarding `CC(C)(C)c1ccc(N2CCCN(c3ccnc4sc(C(N)=O)c(N)c34)CC2)cc1`, in [2], the EC200 was 0.27 µg/mL.

By fraction remaining is commonly meant what is left of the initial amount, in per cent. A low value points to more turnover. Regarding `NC(=O)c1sc2nccc(N3CCN(c4ccccc4)CC3)c2c1N`, in data set [3], the share remaining at 0.5 h was 91%. Further, the EC200 in [2] was determined as 0.1 µg/mL.

In the case of `Cc1cccc(N2CCCN(c3ccnc4sc(C(N)=O)c(N)c34)CC2)c1`, the EC200 in [2] is 0.074 µg/mL.

For orientation: bioavailability means the share of a dose that reaches the circulation, judged against a reference dose that is usually intravenous. Read a low bioavailability as little systemic uptake. As usually defined, the AUC is the area under the concentration-time curve, a measure of exposure. One may read the Cmax as the maximum level reached in the sampled fluid or tissue. Consider `CN(C)c1ccnc2sc(C(N)=O)c(N)c12`, for which, in data set [4], the bioavailability came out at 87%. The AUC in data set [5] turned out to be 870 ng·h/mL; in data set [11], 9400 ng·h/mL. Moreover, the outcome in data set [6], in [8], in [10] and in [12] was Active. The same molecule returned a Cmax in data set [7] of 5590 ng/mL. In addition, the Vd in data set [9] was determined as 1.1 L/kg; in [13], 3.1 L/kg. For the same molecule, the EC200 in data set [2] was found to be 0.17 µg/mL.

For the molecule `NC(=O)c1ccc(N2CCCN(c3ccnc4sc(C(N)=O)c(N)c34)CC2)cc1`, the EC200 in data set [2] turned out to be 0.079 µg/mL.

`CCOC(=O)c1ccc(N2CCCN(c3ccnc4sc(C(N)=O)c(N)c34)CC2)cc1`: the EC200 in data set [2] is 0.193 µg/mL.

For `COc1ccc(N2CCCN(c3ccnc4sc(C(N)=O)c(N)c34)CC2)cc1`, the EC200 in [2] was determined as 0.035 µg/mL.

As to `NC(=O)c1sc2nccc(N3CCCN(c4ccncc4)CC3)c2c1N`, in [2], the EC200 came out at 0.091 µg/mL.

In the case of `NC(=O)c1sc2nccc(N3CCCN(c4ccccn4)CC3)c2c1N`, in data set [2], the EC200 is 0.059 µg/mL.

For the molecule `N#Cc1ccc(N2CCCN(c3ccnc4sc(C(N)=O)c(N)c34)CC2)cc1`, the EC200 in data set [2] stood at 0.099 µg/mL.

Turning to `NC(=O)c1sc2nccc(N3CCCCC3)c2c1N`, the share remaining at 0.5 h in data set [3] amounted to 2%. Further, in data set [2], the EC200 was 0.067 µg/mL.

For `NC(=O)c1sc2nccc(N3CCCN(c4ccc(F)cc4)CC3)c2c1N`, the EC200 in [2] is 0.082 µg/mL.

With `NC(=O)c1sc2nccc(N3CCCN(c4nccs4)CC3)c2c1N`, the EC200 in data set [2] came to 0.036 µg/mL.

As a reminder, the half-life is how long it takes for the measured level to halve. The low end stands for rapid decline, the high end for slow decline. What is called clearance is the volume of plasma or blood freed of the substance per unit of time. What is called CL/F is the apparent clearance, not corrected for the fraction that reaches the circulation. In the case of `NC(=O)c1sc2nccc(N3CCCN(c4ccccc4)CC3)c2c1N`, the result in [14], in data set [16], in [18] and in data set [21] was Active. The molecule further showed a bioavailability in [4] of 71%. Also, the AUC in [5] is 1100 ng·h/mL; in [11] it was 9500 ng·h/mL. Also, the half-life in [15] was 2.77 h; in data set [17], 3.22 h. The amount remaining at 0.5 h in [3] worked out at 71%. This molecule also returned a Cmax in data set [7] of 2540 ng/mL. The molecule also had a clearance in data set [19] of 29 mL/min/kg. In data set [20], this molecule showed a CL/F of 34 mL/min/kg. For the same molecule, the Vd was 4.2 L/kg in [9] and 8.1 L/kg in data set [13]. The EC200 in data set [2] was determined as 0.051 µg/mL.

With `NC(=O)c1sc2nccc(N3CCOCC3)c2c1N`, the share remaining at 0.5 h in [3] was found to be 82%. The EC200 in [2] was 0.44 µg/mL.

On to `CC(C)Oc1ccc(N2CCCN(c3ccnc4sc(C(N)=O)c(N)c34)CC2)cc1`, for which, in [2], the EC200 is over 1 µg/mL.

For the molecule `CN1CCN(c2ccnc3sc(C(N)=O)c(N)c23)CC1`, in data set [1], the Activity was determined as 117%.

In the case of `Cc1ccccc1N1CCCN(c2ccnc3sc(C(N)=O)c(N)c23)CC1`, the EC200 in data set [2] is over 1 µg/mL.

As for `CN(C)C(=O)Cc1ccc(N2CCCN(c3ccnc4sc(C(N)=O)c(N)c34)CC2)cc1`, the EC200 in data set [2] is 0.003 µg/mL.

Take `NC(=O)c1sc2nccc(NC3CCCCC3)c2c1N`: the EC200 in data set [2] stood at 0.24 µg/mL.

Take `CCCNc1ccnc2sc(C(N)=O)c(N)c12`: the Activity in [1] came to 134%.
